The nature of the data set: RP, Waters CORTECS UPLC C18, 100 × 2.1 mm, 1.6 µm, 40 °C, 0.4 mL/min, estimated dead time 0.55 min; A: water + 0.1% formic acid, pH 3; B: acetonitrile + 0.1% formic acid, pH 3; gradient (min/%B) 0/5 1.12/5 6.41/99.5 10.01/99.5. The conditions noted are these: stereoisomer not certain.

Among the data in the RepoRT retention time repository are LC retention time values, retold here.

Where a name gives a salt, the structure may show the parent alone.

For `CC1C(c2ccc(Cl)cc2)SC(=O)N1C(=O)NC1CCCCC1` (configuration not stated) [Hexythiazox], the LC retention time was 6.21 min.

On to `CCC(CC)Nc1c([N+](=O)[O-])cc(C)c(C)c1[N+](=O)[O-]` [Pendimethalin (Penoxalin)], for which the LC retention time is 5.42 min.

As to `CCCCCCCCCCCCCCCCCCC[n+]1cccc(S(=O)(=O)[O-])c1` [C19-APS], the LC retention time is 6.81 min.

For `CNC(=O)Oc1cccc2c1OC(C)(C)C2` [Carbofuran], the LC retention time is 4.09 min.

With `OCCc1c[nH]c2ccccc12` [INDOLE-3-ETHANOL], the LC retention time was 3.05 min.

For `CCCCCCCC[n+]1cccc(S(=O)(=O)[O-])c1` [C8-APS], the LC retention time was 3.67 min.

With `NC(=O)Cc1c[nH]c2ccccc12` [INDOLE-3-ACETAMIDE], the LC retention time was 2.89 min.

Turning to `Clc1ccccc1-c1nnc(-c2ccccc2Cl)nn1` [Clofentezine], the LC retention time was 5.65 min.

In the case of `O=C(O)CNC(=O)c1ccccc1` [Hippuric acid], the LC retention time was 2.6 min.

As for `CC(C)(C)C(O)C(Oc1ccc(-c2ccccc2)cc1)n1cncn1` (configuration not stated) [Bitertanol], the LC retention time is 5.14 min.

For the compound `CCCCCCCCCCCCCCCCC[n+]1cccc(S(=O)(=O)[O-])c1` [C17-APS], the LC retention time is 6.34 min.

As to `Cc1cc2nc3c(=O)[nH]c(=O)nc-3n(CC(O)C(O)C(O)CO)c2cc1C` (configuration not stated) [RIBOFLAVIN], the LC retention time was 2.67 min.

As for `O=C(O)CCCc1c[nH]c2ccccc12` [Indole-3-butyric acid], the LC retention time was 3.94 min.

As to `CC(C)N1C(=O)N(c2ccccc2)CSC1=NC(C)(C)C` [Buprofezin], the LC retention time was 5.45 min.

On to `CC(C)CC(=O)OC(CC(=O)[O-])C[N+](C)(C)C` [Isovaleryl-L-carnitine], for which the LC retention time was 2.61 min.

As for `CCCCCCCCCC(O)CC(=O)OC(CC(=O)[O-])C[N+](C)(C)C` [[(3R)-3-Hydroxydodecanoyl]-L-carnitine], the LC retention time is 4.2 min.

As to `CNC(=O)ON=C(C)SC` [Methomyl], the LC retention time was 4.02 min.

Turning to `CCCCCCCCCCCCCCCCCC(=O)OC(CC(=O)[O-])C[N+](C)(C)C` [Stearoyl-L-carnitine], the LC retention time was 5.89 min.

As for `CON=C1CC2(CC3CC(CC=C(C)CC(C)C=CC=C4COC5C(O)C(C)=CC(C(=O)O3)C45O)O2)OC(C(C)=CC(C)C)C1C` (configuration not stated) [Moxidectin], the LC retention time is 6.81 min.

In the case of `CC(C)(C)C(O)(CCc1ccc(Cl)cc1)Cn1cncn1` (configuration not stated) [Tebuconazole], the LC retention time was 5.06 min.

On to `CCCCCCCCCCCCCC[n+]1cccc(S(=O)(=O)[O-])c1` [C14-APS], for which the LC retention time was 5.49 min.

`NC(Cc1ccccc1)C(=O)O` (configuration not stated) [PHENYLALANINE]: the LC retention time is 1.25 min.

For the compound `CCCCCCCCCC=CC(=O)OC(CC(=O)[O-])C[N+](C)(C)C` [trans-2-Dodecenoyl-L-carnitine], the LC retention time is 4.5 min.

Turning to `CC(C)(C)C(O)C(Oc1ccc(Cl)cc1)n1cncn1` (configuration not stated) [Triadimenol], the LC retention time is 4.74 min.

For the compound `O=C(Nc1ccccc1)Nc1ccnc(Cl)c1` [Forchlorfenuron], the LC retention time was 4.19 min.

With `CCCCCCC[n+]1cccc(S(=O)(=O)[O-])c1` [C7-APS], the LC retention time is 3.32 min.

For `N#CC(CCc1ccc(Cl)cc1)(Cn1cncn1)c1ccccc1` (configuration not stated) [Fenbucanozole], the LC retention time is 5.11 min.

As to `CNC(=O)C=C(C)OP(=O)(OC)OC` [Monocrotophos], the LC retention time was 2.65 min.

As to `N[C@@H](Cc1cc(I)c(Oc2ccc(O)cc2)c(I)c1)C(=O)O` [3,5-DIIODO-L-THYRONINE], the LC retention time was 3.35 min.

Turning to `COC(=O)c1sccc1S(=O)(=O)NC(=O)Nc1nc(C)nc(OC)n1` [Thifensulfurson methyl], the LC retention time is 3.9 min.

On to `CCOC(=O)N(C)C(=O)CSP(=S)(OCC)OCC` [Mecarbam], for which the LC retention time is 5.34 min.

For the compound `CCN(CC)c1nc(C)cc(OP(=S)(OC)OC)n1` [Pirimiphos-methyl], the LC retention time is 5.67 min.

Consider `O=[N+]([O-])NC1=NCCN1Cc1ccc(Cl)nc1` [Imidacloprid], for which the LC retention time was 3.19 min.

Take `Cc1cc(C)nc(NC(=O)NS(=O)(=O)c2ccccc2C(=O)OC2COC2)n1` [Oxasulfuron]: the LC retention time is 3.85 min.

`CCOc1ccc(NC(=O)OC(C)C)cc1OCC` [Diethofencarb]: the LC retention time was 4.83 min.

Take `CCOC(=O)CCN(Cc1ccccc1)SN(C)C(=O)ON=C(C)SC` [Alanycarb]: the LC retention time was 5.25 min.

In the case of `CCN(CC)C(=O)c1cccc(C)c1` [Deet], the LC retention time is 4.37 min.

As to `CC1(O)CCOC(=O)C1` (racemic) [(±)-Mevalonolactone], the LC retention time is 0.963 min.

With `CCCC1COC(Cn2cncn2)(c2ccc(Cl)cc2Cl)O1` (configuration not stated) [Propioconazole], the LC retention time is 5.3 min.

As to `O=C(O)c1ccc2ccccc2n1` [2-QUINOLINECARBOXYLATE], the LC retention time is 2.4 min.

For `CCCCCCCCCCCCCCCCCC[n+]1cccc(S(=O)(=O)[O-])c1` [C18-APS], the LC retention time was 6.58 min.

Take `C=CCCCCCCCC(=O)O` [9-Decenoic acid]: the LC retention time was 4.62 min.

Take `O=C(O)CCc1c[nH]c2ccccc12` [Indole-3-propionic acid]: the LC retention time is 3.7 min.

Turning to `O=C(O)c1ccc(C(=O)O)o1` [2,5-Furandicarboxylic acid], the LC retention time is 1.08 min.

Take `O=C(O)CCc1ccccc1O` [3-(2-HYDROXYPHENYL)PROPANOATE]: the LC retention time was 5.17 min.

`CCON=C(CC)C1=C(O)CC(c2c(C)cc(C)cc2C)CC1=O` (configuration not stated) [Tralkoxidym]: the LC retention time was 6.22 min.

For `CC(CCC(=O)NCCS(=O)(=O)O)C1CCC2C3C(O)CC4CC(O)CCC4(C)C3CCC12C` (configuration not stated) [Tauroursodeoxycholic acid], the LC retention time was 4.18 min.

As for `c1ccc2[nH]c(-c3cscn3)nc2c1` [Thiabendazole], the LC retention time is 2.53 min.

Regarding `CNC(=O)Oc1cccc2ccccc12` [Carbaryl], the LC retention time is 3.14 min.

Take `CNC(=O)Oc1ccc(N(C)C)c(C)c1` [Aminocarb]: the LC retention time was 1.6 min.

With `CS(=O)(=O)c1cc(C(F)(F)F)ccc1C(=O)c1cnoc1C1CC1` [Isoxaflutole], the LC retention time was 4.85 min.

In the case of `O=c1c2cc(F)ccc2nc(-n2cncn2)n1-c1ccc(Cl)cc1Cl` [Fluquinconazole], the LC retention time was 5.01 min.

In the case of `Cn1cnc2c(ncn2C2OC(CO)C(O)C2O)c1=N` (configuration not stated) [1-METHYLADENOSINE], the LC retention time was 0.965 min.

With `CC(CCC(=O)NCCS(=O)(=O)O)C1CCC2C3C(O)CC4CC(O)CCC4(C)C3CC(O)C12C` (configuration not stated) [Taurocholic acid sodium salt hydrate], the LC retention time is 3.74 min.

`CC1CCC2(OC1)OC1CC3C4CC=C5CC(O)CCC5(C)C4CCC3(C)C1C2C` (configuration not stated) [Diosgenin]: the LC retention time was 7.3 min.

For `Cc1nn(C)c(Oc2ccccc2)c1C=NOCc1ccc(C(=O)OC(C)(C)C)cc1` [Fenpyroximate], the LC retention time is 6.25 min.

For `Cc1ncc(CO)c(C(=O)O)c1O` [4-PYRIDOXATE], the LC retention time is 0.768 min.
